The subject of the test is spiral strips of the arteria pulmonalis of the guinea pig. Nature of the test: Relaxing action on K+-depolarized, CaCl2-contracted spiral strips of guinea pig arteria pulmonalis (modified method of Godfraind and Kaba and of Schumann et al.). To be noted: Cavia porcellus; depolarized with 40 mmol/l potassium in calcium-free Tyrode solution; contraction by 0.5 mmol/l CaCl2; cumulative addition; mean value of 4 to 6 strips of vessel; read-out: IC50: concentration of test substance which inhibits the contraction by 50%. The text has this: The pharmacological action of the compound of the formula I has been determined by a modified method of Godfraind and Kaba (Arch. Int. Pharmacodyn. Ther. 196, (Suppl) 35 to 49, 1972) and of Schumann et al. (Naunyn-Schmiedeberg's Arch. Pharmacol. 289, 409 to 418, 1975). In this method, spiral strips of the arteria pulmonalis of the guinea pig are depolarized with 40 mmol/l of potassium after equilibration in calcium-free Tyrode solution. Addition of 0.5 mmol/l of CaCl2 then induces a contraction. The relaxing action of the test substance is determined by cumulative addition of concentrations graduated in 1/2 log 10. The concentration of test substance which inhibits the contraction by 50% (=IC50, mol/l) is determined from the concentration/ effect curve (abscissa: -log mol/l of test substance, ordinate: % inhibition of the maximum contraction, mean value of 4 to 6 strips of vessel). The IC50 values thus obtained are stated in the following table.

pIC50: −log10 of the molar value. Counter-ions that a name gives are not always drawn. Bounds are passed on as bounds.

Consider `N=c1c[n+](NCCO)[n-]o1` [Example 1a, 3-(2-Hydroxyethylamino)-sydnonimine hydrochloride], for which the pIC50 is 5.70.

For the molecule `CCN[n+]1cc(=N)o[n-]1` [Example 2, 3-Ethylamino-sydnonimine hydrochloride], the pIC50 is 5.70.

On to `N=c1c[n+](NC2CCCCC2)[n-]o1` [Example 4e, 3-Cyclohexylamino-sydnonimine hydrochloride], for which the pIC50 was 5.70.

Take `N=c1c[n+](NC2CCCCC2O)[n-]o1` (centres unmarked) [Example 5b, 3-(2-Hydroxycyclohexyl-amino)-sydnonimine hydrochloride]: the pIC50 was 6.00.

Take `CCOC(=O)[N-]c1cn(N2CCOCC2)n[o+]1` [Molsidomine, N-ethoxycarbonyl-3-morpholino-sydnonimine, reference compound]: the pIC50 is less than 4.00.

(Values after patent US5006540A, “Substituted 3-aminosydnonimines, processes for their preparation and their use” (Cassella Aktiengesellschaft, priority 1988, dated 1991).)
